Results published in patent US7838493B2, “Acetylcholinesterase (ACHE)-derived peptide as an inducer of granulocytopoiesis, uses and methods thereof” (priority 2004, dated 2010).

Tested on: human CD34+ hematopoietic stem cells
Assay: Ex vivo expansion of CD34+ cells in liquid culture, flow cytometric immunophenotyping
Type: cell-based
Experimental: Mean fluorescence intensity (MFI) served as a measure of AChE-R content in analyzed cells. When multiplied by the percent fractions of AChE-R-positive cells, the MFI values reflected the total content of AChE-R in the analyzed blood cell samples. Myeloid markers of maternal blood cells were analyzed by the following combination of monoclonal antibodies: anti-CD15-FITC (Dako, Glostrup Denmark), anti-CD33-PE (BD Bioscience, Palo Alto, Calif.), anti-CD45-PerCP (BD Bioscience, Palo Alto, Calif.) and anti-CD14-APC (Caltag, Burlingame, Calif.). Corresponding MFI values reflected the amount of receptor on the surface of granulocytes and monocytes. Expanded CD34+ cells were analyzed by 4-color flow cytometry with FITC-conjugated anti-CD15 and PE-conjugated anti-CD33, PerCP-conjugated anti-CD34, and APC-conjugated anti-CD38 (all antibodies purchased from BD Bioscience, Palo Alto, Calif.) using a FACSCalibur with CellQuest software (BD Bioscience, Palo Alto, Calif.). Relevant isotype control antibodies were used to detect non-specific background fluorescence. The total number of expanded cells for each lineage was calculated by multiplying their relative proportions by the number of viable cells in each culture.
PBAN (a negative control insect peptide) [Nijholt (2003) id ibid.] were also used for cell expansion. […] […] At 3-day intervals, cultures were supplemented with the same growth factor(s) and cells were counted by trypan blue exclusion and diluted to maintain cultures at concentrations no higher then 100,000 cells/mL [Pick M. et al. (2002) Exp. Hematol. 30:1079]. Cultured cells were injected into NOD/SCID mice at a concentration of 100,000 or 200,000 together with 100,000 unexpanded CD34+ cells per mouse as indicated.
Peptide controls (ASP40 and PBAN) were used to explore the specificity of this response.

[1] = Table 4b, cortisol (1.2 nM), day 14

C[C@]12CCC(=O)C=C1CC[C@@H]1[C@@H]2[C@@H](O)C[C@@]2(C)[C@H]1CC[C@]2(O)C(=O)CO [Cortisol, cortisol]
total number of cells (CD34+ cells, 2-week incubation, versus control): not | Cell expansion index (Table 4a, cultured CD34+ cells, cortisol 1.2 μM, viable cells/ml at day 14 divided by seeded cells (50,000)): 1.55 ± 0.07 | Cell expansion index (Table 4b, typical CD34+ culture, cortisol (1.2 nM), day 14): 1.6 | CD33+ CD15+ Granulocytes [1]: 28.5 cell counts × 10^3 | CD33+ CD15− Immature myeloids [1]: 13.0 cell counts × 10^3 | CD33− CD15+ Mature granulocytes [1]: 15.4 cell counts × 10^3 | CD34+ CD33+ Committed myeloids [1]: 10.6 cell counts × 10^3 | CD34+ CD38+ Committed progenitors [1]: 11.0 cell counts × 10^3
